These results are taken from ChEMBL document CHEMBL4609979, “Design of enkephalin modifications protected from brain extracellular peptidases providing long-term analgesia” (Bioorg Med Chem, 2020).

Data set [1] in a line: Stability in bovine brain synaptosomes assessed as compound remaining at 0.35 mM incubated for 3 hrs by thin layer chromatography analysis. As to conditions: cattle; for remaining at 3 h, 350 µM: brain synaptosomes, read-out: Stability. The class given is ADME, subcellular, Bos taurus.
The nature of data set [2]: Toxicity in Wistar rat assessed as effect on memory by measuring average distance that has been travelled to previously placed platform at 0.4 uM/kg administered intranasally by Morris water maze test. As to conditions: in vivo, inhaled_or_intranasal.
Data set [3] can be described thus: Acute toxicity in Wistar rat assessed as heart rate at 2 uM/kg administered intranasally and measured after 20 mins. As to conditions: in vivo, inhaled_or_intranasal.
Data set [4] can be described thus: Acute toxicity in Wistar rat assessed as pathological abnormalities in tissues at 2 uM/kg administered intranasally and measured after 20 mins. As to conditions: in vivo, inhaled_or_intranasal.
The nature of data set [5]: Acute toxicity in Wistar rat assessed as animal activity at 2 uM/kg administered intranasally and measured after 20 mins. As to conditions: in vivo, inhaled_or_intranasal.
The nature of data set [6]: Acute toxicity in Wistar rat assessed as irritability at 2 uM/kg administered intranasally and measured after 20 mins. As to conditions: in vivo, inhaled_or_intranasal.
Data set [7] is described as follows: Acute toxicity in Wistar rat assessed as nausea at 2 uM/kg administered intranasally and measured after 20 mins. As to conditions: in vivo, inhaled_or_intranasal.
Data set [8] is described as follows: Acute toxicity in Wistar rat assessed as sleep at 2 uM/kg administered intranasally and measured after 20 mins. As to conditions: in vivo, inhaled_or_intranasal.
The test system of a further data set is Rattus norvegicus. As to the kind of experiment: Analgesic activity in Wistar rat assessed as increase in tail flick latency at 0.4 uM/kg administered intranasally and measured upto 120 mins by tail-flick test. The class given is functional, organism-based. (In general: Hot-plate and tail-flick tests time the reaction to a heat stimulus.)
Data set [9] is described as follows: Acute toxicity in Wistar rat assessed as appetite at 2 uM/kg administered intranasally and measured after 20 mins. As to conditions: in vivo, inhaled_or_intranasal.
Data set [10] can be described thus: Acute toxicity in Wistar rat assessed as pathological abnormalities in organs at 2 uM/kg administered intranasally and measured after 20 mins. As to conditions: in vivo, inhaled_or_intranasal.
Data set [11] can be described thus: Acute toxicity in Wistar rat assessed as arterial pressure at 2 uM/kg administered intranasally and measured after 20 mins. As to conditions: in vivo, inhaled_or_intranasal.
The nature of data set [12]: Acute toxicity in Wistar rat assessed as animal death at 2 uM/kg administered intranasally and measured after 20 mins. As to conditions: in vivo, inhaled_or_intranasal.
The nature of data set [13]: Stability in bovine brain synaptosomes assessed as compound remaining at 0.35 mM incubated for 30 mins by thin layer chromatography analysis. The class given is ADME, subcellular, Bos taurus. As to conditions: cattle.

Molecules are shown by their SMILES. Activity calls are given as the source filed them. No cut-off for these calls is given here. Where a SMILES comes first, the peptide text is derived from it. [ ]: non-standard residue; d: D form. βAla = NCCC(=O)O

Consider `NCCC(=O)N[C@@H](Cc1ccc(O)cc1)C(=O)NCC(=O)NCC(=O)N[C@@H](Cc1ccccc1)C(N)=O` (H-[βAla]YGGF-NH2), for which the remaining at 3 h, 350 µM in [1] turned out to be 75%. The Activity entry in data set [2], in data set [3], in data set [4], in [5], in [6] and in data set [7] was “Non-Toxic” throughout. In addition, the Activity result in data set [8], in data set [9], in data set [10], in data set [11] and in [12] was “Non-Toxic” each time. For the same molecule, the outcome in the data set on Rattus norvegicus was Active.
As to `CSCC[C@H](NC(=O)[C@H](Cc1ccccc1)NC(=O)CNC(=O)CNC(=O)[C@@H](N)Cc1ccc(O)cc1)C(=O)O`, in the data set on Rattus norvegicus, the outcome was Active. Besides, the Stability result in data set [13] (0.5 h, 350 µM) was “Unstable”.
In the case of `NCCC(=O)N[C@@H](Cc1ccc(O)cc1)C(=O)NCC(=O)N[C@@H](Cc1ccccc1)C(N)=O` (H-[βAla]YGF-NH2), the remaining at 3 h, 350 µM in data set [1] was determined as 75%. For the same molecule, the outcome in the data set with Rattus norvegicus was inactive.
For `CSCC[C@H](NC(=O)[C@H](Cc1ccccc1)NC(=O)CNC(=O)CNC(=O)[C@H](Cc1ccc(O)cc1)NC(=O)CCN)C(=O)NCCC(=O)O` (H-[βAla]YGGFM[βAla]-OH), in data set [1], the remaining at 3 h, 350 µM came out at 55%. The result in the data set on Rattus norvegicus was Active.
As for `C[C@H](NC(=O)CCN)C(=O)N[C@@H](CCCCN)C(=O)N[C@@H](Cc1ccccc1)C(=O)NCCC(=O)O` (H-[βAla]AKF[βAla]-OH), the Stability result in data set [1] (3 h, 350 µM) is “Stable”.
With `C[C@H](N)C(=O)N[C@@H](CCCCN)C(=O)N[C@@H](Cc1ccccc1)C(=O)O` (H-Ala-Lys-Phe-OH), the remaining at 0.5 h, 350 µM in data set [13] (brain synaptosomes, read-out: Stability) is 0%.
